According to patent publication US8106033B2, “Composition and methods for the treatment of proliferative diseases” (priority 2005, dated 2012):
Entries after “also recorded” stand apart in the source; their conditions may differ. Where two headings read alike, the source gives them in different places.

Experiments:
[1] = test system: MCF-7 tumor cells (human breast cancer cell line)
Experimental: Estradiol pellets (1 mg) were implanted interscapularly into twenty female athymic nude mice (NCR-nu/nu, Taconic) mouse. After 24 hours 1×10^7 MCF-7 tumor cells (breast cancer cell line) were implanted in the mammary fat pad of each mouse. The tumors produced by the tumor cell injections were allowed to grow for a period of 10-15 days until the tumors reached a size from 200 to 250 mm^3. The mice were then divided into four test groups (N=5) which were treated every other day by IP injections with: (a) (E)-2-(5-((2,4,6-trimethoxystyrylsulfonyl)methyl)-2-methoxyphenylamino)acetic acid sodium salt (200 mg/kg) dissolved in PBS; (b) doxorubicin (2.5 mg/kg) dissolved in PBS; (c) a combination of (E)-2-(5-((2,4,6-trimethoxystyrylsulfonyl)methyl)-2-methoxyphenylamino)acetic acid sodium salt (200 mg/kg) and doxorubicin (2.5 mg/kg) dissolved in PBS; or (d) PBS vehicle containing no drug. […] Body weights are plotted in FIG. 3(b) as the mean of the measured weights of all the animals in each dose group. Tumor volume was determined by measuring each tumor in two dimensions using traceable digital Vernier calipers. The tumor volume was calculated for each tumor using the equation: V=L×(S^2)π/6. The tumor volume is plotted in FIG. 3(a) as the mean tumor volume all animals in each particular dose group.

[2] = test system: DU145 tumor cells (human prostate cancer cell line); experiment: DU145 tumor xenograft in nude mice (Example 7); format: in vivo; details: for effect on tumor growth (mean tumor volume): IP every other day, Compound A 200 mg/kg, oxaliplatin 5 mg/kg, alone or combined
Experimental: At this time, animals were divided into four groups (N=5) and were treated every other day by IP injections with: […] (b) oxaliplatin (5.0 mg/kg); […] All animals were examined for signs of toxicity. Tumor volumes and body weights were determined weekly. […] The tumor volume is plotted in FIG. 2 as the mean tumor volume±standard error of the mean (SEM) for all animals in each particular dose group.

[3] = test system: BEL-7402 tumor cells (human hepatoma cell line); format: in vivo; details: BEL-7402 xenograft, IP every other day, Compound A 200 mg/kg, oxaliplatin 5 mg/kg, alone or combined
Experimental: Twenty female athymic nude mice (NCR-nu/nu, Taconic) were injected subcutaneously with 1×10^7 BEL-7402 tumor cells (human hepatoma cell line). The tumors produced by the tumor cell injections were allowed to grow for a period of 10-14 days until the tumors reached a size from 200 to 250 mm^3. The mice were then divided into four test groups (N=5) which were treated every other day by intraperitoneal (IP) injections of: (a) (E)-2-(5-((2,4,6-trimethoxystyrylsulfonyl)methyl)-2-methoxyphenylamino)acetic acid sodium salt (Compound A) (200 mg/kg) dissolved in PBS; (b) oxaliplatin (5 mg/kg); (c) a combination of (E)-2-(5-((2,4,6-trimethoxystyrylsulfonyl)methyl)-2-methoxyphenylamino)acetic acid sodium salt (200 mg/kg) dissolved in PBS and oxaliplatin (5 mg/kg), or (d) PBS vehicle containing no drug. […] Body weights are plotted in FIG. 1(b) as the mean of the measured weights of all the animals in each dose group. Tumor volume was determined by measuring each tumor in two dimensions using traceable digital Vernier calipers (Fisher Scientific International Inc., Liberty Lane, Hampton, N.H. 03842). The tumor volume was calculated for each tumor using the equation: V=L×(S^2)π/6, wherein L is the longer, and S is the shorter of the two measured dimensions. […]

[4] = test system: MCF-7 tumor cells (human breast cancer cell line); experiment: Doxorubicin toxicity and lethality in MCF-7 tumor-bearing nude mice (Example 9); format: in vivo
Experimental: Estradiol pellets (1 mg) were implanted interscapularly into ten female athymic nude mice (NCR-nu/nu, Taconic) mouse. […] Body weights for the individual animals of group (a) are plotted in FIG. 4(a) and body weights for the individual animals of group (b) are plotted in FIG. 4(b).

[5] = MCF-7 xenograft, IP every other day, Compound A 200 mg/kg, doxorubicin 2.5 mg/kg, alone or combined

Compound | survival of the animals [1, 5] | effect on tumor growth (mean tumor volume) ([1]; MCF-7 xenograft, IP every other day, Compound A 200 mg/kg, doxorubicin 2.5 mg/kg, alone or combined, sodium salt) | effect on tumor growth (mean tumor volume) [2] | time at which tumors were of comparable volume to control tumors after 28 days ([2]; single agents) | effect on tumor growth (mean tumor volume) ([3]; sodium salt) | effect on tumor growth (mean tumor volume) [1, 5] | tumor size when the animals had died ([1]; doxorubicin 2.5 mg/kg alone, by the 35th day) | animals with major weight loss immediately preceding death ([4]; doxorubicin 1 mg/kg IP every other day alone) | body weight change ([4]; doxorubicin 1 mg/kg IP every other day, alone or with Compound A 200 mg/kg) | survival rate ([4]; doxorubicin 1 mg/kg IP every other day, alone or with Compound A 200 mg/kg, N=5) | effect on tumor growth (mean tumor volume) [3]
COc1cc(OC)c(/C=C/S(=O)(=O)Cc2ccc(OC)c(NCC(=O)[O-])c2)c(OC)c1.[Na+] [(E)-2-(5-((2,4,6-trimethoxystyrylsulfonyl)methyl)-2-methoxyphenylamino)acetic acid sodium salt] | 84 days | significantly slowed the growth of the tumors; also recorded: comparable reduction in tumor growth | significant therapeutic response | 63 days | significant greater reduction in tumor growth; also recorded: slowed the growth of the tumor | – | – | – | – | – | –
COc1cccc2c1C(=O)c1c(O)c3c(c(O)c1C2=O)C[C@@](O)(C(=O)CO)C[C@@H]3O[C@H]1C[C@H](N)[C@H](O)[C@H](C)O1 [doxorubicin] | – | – | – | – | – | significantly slowed the growth of the tumors | 500 mm^3 | 4 of the 5 | initial suggestive weight gain | 20% | –
O=C1[O][Pt]2([NH][C@@H]3CCCC[C@H]3[NH]2)[O]C1=O [oxaliplatin] | – | – | significant therapeutic response | – | – | – | – | – | – | – | significant greater reduction in tumor growth; also recorded: slowed the growth of the tumor
